Laboratory results taken from ChEMBL document CHEMBL4368865, “Synthesis, characterization and cytotoxic activity evaluation of ginsengdiol oxidation and nitrogen hybrid derivatives” (Medchemcomm, 2018).
pIC50: −log10 of the molar value.

Key:
[1] = Cytotoxicity against human 8901 cells assessed as inhibition of cell proliferation after 48 hrs by MTT assay; type: functional, cell-based
U-87 MG = assay: Cytotoxicity against human U87 cells assessed as inhibition of cell proliferation after 48 hrs by MTT assay; type: functional, cell-based, U-87MG ATCC
MCF7 = assay: cells; type: functional, cell-based; details: Homo sapiens, MCF7, 48 h
Description: Cytotoxicity against human MCF7 cells assessed as inhibition of cell proliferation after 48 hrs by MTT assay

[2] = Cytotoxicity against human IOSE-144 cells assessed as inhibition of cell proliferation after 48 hrs by MTT assay; type: cell-based; details: IOSE-144, 48 h
A549 [3] = assay: Cytotoxicity against human A549 cells assessed as inhibition of cell proliferation after 48 hrs by MTT assay; type: functional, cell-based; details: A549, 48 h
HeLa [4] = assay: Cytotoxicity against human HeLa cells assessed as inhibition of cell proliferation after 48 hrs by MTT assay; type: functional, cell-based
HeLa [5] = assay: Potency index, ratio of 5-fluorouracil IC50 to test compound IC50 for human HeLa cells; type: functional
A549 [6] = assay: Potency index, ratio of 5-fluorouracil IC50 to test compound IC50 for human A549 cells; type: functional

Compound	pIC50 [1]	pIC50 (U-87 MG)	pIC50 (MCF7)	pIC50 [2]	pIC50 (A549 [3])	pIC50 (HeLa [4])	Ratio IC50 (HeLa [5])	Ratio IC50 (A549 [6])
COC(C)(C)CCC[C@@](C)(O)[C@H]1CC[C@]2(C)[C@@H]1[C@H](O)C[C@@H]1[C@@]3(C)CC[C@H](O)C(C)(C)[C@@H]3CC[C@]12C	4.41	4.71	4.35	< 4.00	4.53	4.53		
COC(C)(C)CCC[C@@](C)(O)[C@H]1CC[C@]2(C)[C@@H]1[C@H](O)C[C@@H]1[C@@]3(C)C=C(O)C(=O)C(C)(C)[C@@H]3CC[C@]12C	4.59	4.68	4.45	< 4.00	4.67	4.41		
CC(C)(O)CCC[C@@](C)(O)[C@H]1CC[C@]2(C)[C@@H]1[C@H](O)C[C@@H]1[C@@]3(C)CC[C@H](O)C(C)(C)[C@@H]3CC[C@]12C	4.33	4.60		< 4.00	4.55	4.71		
CC1(C)CCC[C@](C)([C@H]2CC[C@]3(C)[C@@H]2[C@H](O)C[C@@H]2[C@@]4(C)CCC(=O)C(C)(C)[C@@H]4CC[C@]23C)O1	< 4.00	4.05	4.11	< 4.00	< 4.00	4.18		
COC(C)(C)CCC[C@@](C)(O)[C@H]1CC[C@]2(C)[C@@H]1[C@H](O)C[C@@H]1[C@@](C)(CC(=O)O)[C@H](C(C)(C)C=O)CC[C@]12C	< 4.00	< 4.00	< 4.00	< 4.00	4.07	< 4.00		
COC(C)(C)CCC[C@@](C)(O)[C@H]1CC[C@]2(C)[C@@H]1[C@H](O)C[C@@H]1[C@@]3(C)CCC(=O)C(C)(C)[C@@H]3CC[C@]12C	4.10	< 4.00	4.30	< 4.00	4.40	< 4.00		
CC1(C)CCC[C@](C)([C@H]2CC[C@]3(C)[C@@H]2[C@H](O)C[C@@H]2[C@@]4(C)Cc5cnc(N)nc5C(C)(C)[C@@H]4CC[C@]23C)O1	4.34	4.08	4.55	< 4.00	4.57	4.16		
O=c1[nH]cc(F)c(=O)[nH]1 [FLUOROURACIL]	4.48	4.66		4.46		4.55		
CC(C)(O)CCC[C@@](C)(O)[C@H]1CC[C@]2(C)[C@@H]1C(=O)C[C@@H]1[C@@]3(C)CCC(=O)C(C)(C)[C@@H]3CC[C@]12C	< 4.00	< 4.00	4.19	< 4.00	4.05	< 4.00		
CC(C)(O)CCC[C@@](C)(O)[C@H]1CC[C@]2(C)[C@@H]1C(=O)C[C@@H]1[C@@]3(C)Cc4nccnc4C(C)(C)[C@@H]3CC[C@]12C	< 4.00	< 4.00	4.41	< 4.00	4.71	< 4.00		
CC1(C)CCC[C@](C)([C@H]2CC[C@]3(C)[C@@H]2[C@H](O)C[C@@H]2[C@@]4(C)Cc5cnoc5C(C)(C)[C@@H]4CC[C@]23C)O1	< 4.00	< 4.00	< 4.00	< 4.00	4.17	< 4.00		
CC1(C)CCC[C@](C)([C@H]2CC[C@]3(C)[C@@H]2[C@H](O)C[C@@H]2[C@@]4(C)CC(C=O)C(=O)C(C)(C)[C@@H]4CC[C@]23C)O1 (some centres undefined)	4.52	4.51	4.55	< 4.00	4.73	4.50		
CC(C)(O)CCC[C@@](C)(O)[C@H]1CC[C@]2(C)[C@@H]1[C@H](O)C[C@@H]1[C@@]3(C)C=C(O)C(=O)C(C)(C)[C@@H]3CC[C@]12C	4.06	4.34	4.34	< 4.00	4.61	4.29		
CC1(C)CCC[C@](C)([C@H]2CC[C@]3(C)[C@@H]2[C@H](O)C[C@@H]2[C@@]4(C)Cc5nccnc5C(C)(C)[C@@H]4CC[C@]23C)O1	< 4.00	< 4.00	< 4.00	< 4.00	< 4.00	< 4.00		
CC(C)(O)CCC[C@@](C)(O)[C@H]1CC[C@]2(C)[C@@H]1[C@H](O)C[C@@H]1[C@@]3(C)CCC(=O)C(C)(C)[C@@H]3CC[C@]12C	< 4.00	< 4.00	4.18	< 4.00	4.59	< 4.00		
CC1(C)CCC[C@](C)([C@H]2CC[C@]3(C)[C@@H]2[C@H](O)C[C@@H]2[C@@]4(C)Cc5nc6ccccc6nc5C(C)(C)[C@@H]4CC[C@]23C)O1	< 4.00	< 4.00	< 4.00	< 4.00	< 4.00	< 4.00		
CC1(C)CCC[C@@](C)(O)[C@H]2CC[C@]3(C)[C@@H]2[C@@H](C[C@@H]2[C@@]4(C)CCC(=O)C(C)(C)[C@@H]4CC[C@]23C)O1	< 4.00	4.12	4.04	< 4.00	4.06	< 4.00		
CC1(C)CCC[C@](C)([C@H]2CC[C@]3(C)[C@@H]2[C@H](O)C[C@@H]2[C@@](C)(CC(=O)O)[C@H](C(C)(C)C=O)CC[C@]23C)O1	< 4.00	< 4.00	< 4.00	< 4.00	< 4.00	< 4.00		
CC1(C)CCC[C@](C)([C@H]2CC[C@]3(C)[C@@H]2[C@H](O)C[C@@H]2[C@@]4(C)CC(C#N)=C(O)C(C)(C)[C@@H]4CC[C@]23C)O1	4.59	4.38	4.53	< 4.00	4.89	4.90		
CC1(C)CCC[C@](C)([C@H]2CC[C@]3(C)[C@@H]2[C@H](O)C[C@@H]2[C@@]4(C)Cc5cn[nH]c5C(C)(C)[C@@H]4CC[C@]23C)O1	4.87	4.58	4.72	< 4.00	5.02	4.93	2.5	
CC(C)(O)CCC[C@@](C)(O)[C@H]1CC[C@]2(C)[C@@H]1[C@H](O)C[C@@H]1[C@@](C)(CC(=O)O)[C@H](C(C)(C)C(=O)O)CC[C@]12C	< 4.00	< 4.00	< 4.00	< 4.00	< 4.00	< 4.00		
CC1(C)CCC[C@](C)([C@H]2CC[C@]3(C)[C@@H]2[C@H](O)C[C@@H]2[C@@]4(C)C=C(O)C(=O)C(C)(C)[C@@H]4CC[C@]23C)O1	4.30	4.70	4.63	< 4.00	4.40	4.60		
COC(C)(C)CCC[C@@](C)(O)[C@H]1CC[C@]2(C)[C@@H]1C(=O)C[C@@H]1[C@@]3(C)CC[C@H](O)C(C)(C)[C@@H]3CC[C@]12C	4.09	4.48	4.35	< 4.00	4.43	4.74		
CC(C)(O)CCC[C@@](C)(O)[C@H]1CC[C@]2(C)[C@@H]1C(=O)C[C@@H]1[C@@]3(C)CC[C@H](O)C(C)(C)[C@@H]3CC[C@]12C	4.18	< 4.00	< 4.00	< 4.00	4.30	< 4.00		
Cc1ncc2c(n1)C(C)(C)[C@@H]1CC[C@]3(C)[C@H](C[C@@H](O)[C@@H]4[C@@H]([C@@]5(C)CCCC(C)(C)O5)CC[C@]43C)[C@@]1(C)C2	< 4.00	4.06	4.08	< 4.00	< 4.00	< 4.00		
CC1(C)CCC[C@](C)([C@H]2CC[C@]3(C)[C@@H]2[C@H](O)C[C@@H]2[C@@]4(C)Cc5c([nH]c6ccccc56)C(C)(C)[C@@H]4CC[C@]23C)O1	< 4.00	< 4.00	< 4.00	< 4.00	< 4.00	< 4.00		
COC(C)(C)CCC[C@@](C)(O)[C@H]1CC[C@]2(C)[C@@H]1C(=O)C[C@@H]1[C@@]3(C)CCC(=O)C(C)(C)[C@@H]3CC[C@]12C	< 4.00	< 4.00	4.01	< 4.00	< 4.00	< 4.00		
CC1(C)CCC[C@](C)([C@H]2CC[C@]3(C)[C@@H]2[C@H](O)C[C@@H]2[C@@]4(C)CC/C(=N\O)C(C)(C)[C@@H]4CC[C@]23C)O1	< 4.00	< 4.00	< 4.00	< 4.00	< 4.00	< 4.00		
CC1(C)CCC[C@](C)([C@H]2CC[C@]3(C)[C@@H]2[C@H](O)C[C@@H]2[C@@]4(C)CC[C@H](O)C(C)(C)[C@@H]4CC[C@]23C)O1 [PANAXADIOL]	< 4.00	< 4.00	4.28	< 4.00	4.35	< 4.00		
CC(C)(O)CCC[C@@](C)(O)[C@H]1CC[C@]2(C)[C@@H]1[C@H](O)C[C@@H]1[C@@]3(C)Cc4nccnc4C(C)(C)[C@@H]3CC[C@]12C	4.88	4.42	4.75	< 4.00	5.05	< 4.00		2.6
